Laboratory results taken from US20250381181A1, “CANCER TREATMENT AGENT INCLUDING MALT1 INHIBITING DRUG AS ACTIVE INGREDIENT” (ONO PHARMACEUTICAL CO., LTD., priority 2022, published 2025).

Experiments:
[1] = system: Human mantle cell lymphoma cell line; experiment: Combination of Compound A and each anticancer agent, cell viability (Cell Counting Kit-8); details: combined treatment with Compound A (3, 10, 30 or 100 nmol/L), 6 days
Procedure: (§6) Human CD79 mutation-positive diffuse large B-cell lymphoma cell lines and human mantle cell lymphoma cell lines were used. The cells were subcultured using RPMI1640 containing 10% non-mobilized fetal bovine serum (hereinafter, the medium) under conditions of 5% CO2 and 37° C.
(§7) The cells suspended in the medium were seeded in 96 well plates at a density of 2500 or 5000 cells/100 μL per well. […] After completion of the culture, the number of surviving cells was measured using Cell Counting Kit-8 (DOJINDO) according to the procedure of the kit.

[2] = system: Human CD79 mutation-positive diffuse large B-cell lymphoma cell line; experiment: as above; details: combined treatment with Compound A (3, 10, 30 or 100 nmol/L); CD79 mutation-positive DLBCL; 6 days
Procedure: as §6, §7

[3] = system: Human CARD11 mutation-positive DLBCL cell line; experiment: Combination of Compound A and Bcl-2 inhibitor, cell viability (Cell Counting Kit-8); assay type: cell-based; details: combined treatment with Compound A (10, 30 or 100 nmol/L), 6 days
Description: (§1) Treatment concentrations of Compound A were 10, 30 or 100 nmol/L, and treatment concentrations of the Btk inhibitor and the Bcl-2 inhibitor were set between 0.3 to 300 nmol/L or 0.003 to 10 nmol/L, respectively.

[4] = system: Human CD79 mutation-positive DLBCL cell line; experiment: Combination of Compound A and Btk inhibitor or Bcl-2 inhibitor, cell viability (Cell Counting Kit-8); assay type: cell-based; details: combined treatment with Compound A (10, 30 or 100 nmol/L), 6 days
Description: as §1

Human MCL cell line = experiment: as above; assay type: cell-based; details: combined treatment with Compound A (10, 30 or 100 nmol/L), 6 days
Description: as §1

[5] = system: Human CD79 mutation-positive diffuse large B-cell lymphoma cell line 2; experiment: Combined effect on cell viability, Compound A and Btk inhibitor (CellTiter-Glo, in vitro); assay type: cell-based; details: combined treatment with Compound A, 6 days of culture
Procedure: (§2) Using Ibrutinib as a Btk inhibitor, the combined effect on cell viability with Compound A was evaluated in vitro.
(§3) After 6 days of culture from the addition, the cell viability was evaluated as follows.
(§4) Cell viability was evaluated by each treatment by measuring intracellular adenosine triphosphate (ATP) using CellTiter-Glo. That is, 100 μL of CellTiter-Glo solution per well was added to each well and incubated at room temperature for 15 minutes, and then chemiluminescence was measured. The average value of each combination was calculated from the obtained data, and a concentration reaction curve of the cell viability of each drug alone or in combination was created with the luminescence intensity in cells treated with DMSO alone as 100%.
(§5) The half maximal inhibitory concentration (IC50) for each drug was determined using median effect analysis software CalcuSyn 2.0 (CalcuSyn, Inc).

[6] = system: Human CD79 mutation-positive diffuse large B-cell lymphoma cell line 1; experiment: as above; assay type: cell-based; details: combined treatment with Compound A
Procedure: as §2, §3, §4, §5

[7] = system: human CD79 mutation-positive diffuse large B-cell lymphoma cell line; experiment: Antitumor effect in mouse subcutaneous transplantation model; assay type: in vivo; details: orally for 21 days; Compound A 10 mg/kg twice a day, Ibrutinib 10 mg/kg once a day; subcutaneous tumor in NOG mice
Procedure: A human CD79 mutation-positive diffuse large B-cell lymphoma cell line was used. The cells were subcultured using Iscove's modified Dulbecco's medium containing 20% inactivated calf serum and 0.5 mmol/L Monothioglycerol under conditions of 5% CO2 and 37° C.
The cells were suspended in HBSS:Matrigel=1:1 and implanted subcutaneously in the abdomen of 7-week-old female NOG mice at 1×10^6 cells/mouse. The tumor volume was measured using a caliper, and calculated by a calculation formula of tumor volume=(major tumor diameter×minor tumor diameter×minor tumor diameter)/2. At the time when the tumor volume reached about 120 mm^3, grouping was performed into 4 groups of 6 mice per group. Compound A was orally administered at a dose of 10 mg/kg twice a day for 21 days, and Ibrutinib was orally administered at a dose of 10 mg/kg once a day for 21 days. Also, the combined administration group was orally administered with 10 mg/kg of Compound A and 10 mg/kg of ibrutinib. The control group was orally administered with a 0.5% methylcellulose solution. After grouping, tumor volume measurements were performed twice a week. T/C (%) was used as an index of the antitumor effect.
Regarding the amount of tumor volume change during the administration period of each group, the combined antitumor effect of Compound A and Ibrutinib was analyzed by a statistical method of two-way ANOVA of EZR (ver. 1.54) software.

## Nc1cc(F)ccc1NC(=O)c1ccc(CNC(=O)/C=C/c2cccnc2)cc1 [Tucidinostat]
[1]
  Combination index (CI) value, median: 0.668
[2]
  Combination index (CI) value, median: 0.756

## Irinotecan (SN-38)
[1]
  Combination index (CI) value, median: 0.903
[2]
  Combination index (CI) value, median: 0.993

## Nc1cc(C(F)(F)F)c(-c2cc(N3CCOCC3)nc(N3CCOCC3)n2)cn1 [BKM120]
[2]
  Combination index (CI) value, median: 0.729

## CC1(C)CCC(CN2CCN(c3ccc(C(=O)NS(=O)(=O)c4ccc(NCC5CCOCC5)c([N+](=O)[O-])c4)c(Oc4cnc5[nH]ccc5c4)c3)CC2)=C(c2ccc(Cl)cc2)C1 [Venetoclax]
[3]
  Combination index (CI) value, median: 0.5995
[4]
  Combination index (CI) value, median: 0.5985
Human MCL cell line
  Combination index (CI) value, median: 0.372

## NC1(c2ccc(-c3nc4ccn5c(=O)[nH]nc5c4cc3-c3ccccc3)cc2)CCC1 [MK-2206]
[1]
  Combination index (CI) value, median: 0.915
[2]
  Combination index (CI) value, median: 0.626

## C[C@]12C=CC(=O)C=C1CC[C@@H]1[C@@H]2[C@@H](O)C[C@@]2(C)[C@H]1CC[C@]2(O)C(=O)CO [Prednisolone]
[1]
  Combination index (CI) value, median: 0.854
[2]
  Combination index (CI) value, median: 0.168

## O=C(c1ccc(Oc2ccccc2)cc1Cl)c1c[nH]c2ncnc(N[C@@H]3CC[C@@H](CO)OC3)c12 [ARQ-531]
[4]
  Combination index (CI) value, median: 0.701
Human MCL cell line
  Combination index (CI) value, median: 0.928

## COc1cccc2c1C(=O)c1c(O)c3c(c(O)c1C2=O)C[C@@](O)(C(=O)CO)C[C@@H]3O[C@H]1C[C@H](N)[C@H](O)[C@H](C)O1 [Doxorubicin]
[1]
  Combination index (CI) value, median: 0.932
[2]
  Combination index (CI) value, median: 0.953

## C=CC(=O)N1CCC[C@@H](n2nc(-c3ccc(Oc4ccccc4)cc3)c3c(N)ncnc32)C1 [Ibrutinib]
[5]
  combination index (CI), median: 0.504
[6]; cell line 1, 6 days of culture
  combination index (CI), median: 0.629
[6]; in each cell line (cell lines 1 and 2), synergistic effect
  median of CI: less than 1
[7]
  T/C (%): 63.1%

## CO[C@@H](C)c1c(NC(=O)Nc2cnc(-n3nccn3)c(C(F)(F)F)c2)cnc2ccc(Cl)nc12 [Compound A, (S)—N-(6-chloro-4-(1-methoxyethyl)-1,5-naphthyridin-3-yl)-N′-(6-(2H-1,2,3-triazol-2-yl)-5-(trifluoromethyl)pyridin-3-yl)urea]
[7]
  T/C (%): 49.8%

## CC#CC(=O)N1CCC[C@H]1c1nc(-c2ccc(C(=O)Nc3ccccn3)cc2)c2c(N)nccn12 [Acarabrutinib]
[4]
  Combination index (CI) value, median: 0.839
Human MCL cell line
  Combination index (CI) value, median: 0.956

## Cc1cc(-c2nc(C(=O)Nc3cc4oc(N5CCOCC5)nc4nc3N3CC[C@@H](O)C3)co2)ccn1 [CA-4948]
[1]
  Combination index (CI) value, median: 0.846
[2]
  Combination index (CI) value, median: 0.905

## O=C(CCCCCCC(=O)Nc1ccccc1)NO [Vorinostat]
[1]
  Combination index (CI) value, median: 0.866
[2]
  Combination index (CI) value, median: 0.930

## Nc1cccc2c1CN(C1CCC(=O)NC1=O)C2=O (stereo not drawn) [Lenalidomide]
[1]
  Combination index (CI) value, median: 0.190
[2]
  Combination index (CI) value, median: 0.736

## CN1CCN(c2nc(C3=C(c4c[nH]c5ccccc45)C(=O)NC3=O)c3ccccc3n2)CC1 [Sotrastaurin]
[1]
  Combination index (CI) value, median: 0.775
[2]
  Combination index (CI) value, median: 0.896

## CS(=O)(=O)N1CCN(Cc2cc3nc(-c4cccc5[nH]ncc45)nc(N4CCOCC4)c3s2)CC1 [GDC-0941]
[1]
  Combination index (CI) value, median: 0.694
[2]
  Combination index (CI) value, median: 0.873

## CC(=O)Nc1cccc(-n2c(=O)n(C3CC3)c(=O)c3c(Nc4ccc(I)cc4F)n(C)c(=O)c(C)c32)c1 [Trametinib]
[1]
  Combination index (CI) value, median: 0.971
[2]
  Combination index (CI) value, median: 0.218

## CC#CC(=O)N1CC[C@@H](n2c(=O)n(-c3ccc(Oc4ccccc4)cc3)c3c(N)ncnc32)C1 [Tirabrutinib]
[4]
  Combination index (CI) value, median: 0.761
Human MCL cell line
  Combination index (CI) value, median: 0.822

## Cn1cc(C2=C(c3cn(C4CCN(Cc5ccccn5)CC4)c4ccccc34)C(=O)NC2=O)c2ccccc21 [Enzastaurin]
[1]
  Combination index (CI) value, median: 0.842
[2]
  Combination index (CI) value, median: 0.854

## NC(=O)c1cnc(N[C@@H]2CCCC[C@@H]2N)nc1Nc1cccc(-n2nccn2)c1 [PRT062607]
[1]
  Combination index (CI) value, median: 0.820
[2]
  Combination index (CI) value, median: 0.630

## CO[C@H]1C[C@@H]2CC[C@@H](C)[C@@](O)(O2)C(=O)C(=O)N2CCCC[C@H]2C(=O)O[C@H]([C@H](C)C[C@@H]2CC[C@@H](OCCO)[C@H](OC)C2)CC(=O)[C@H](C)/C=C(\C)[C@@H](O)[C@@H](OC)C(=O)[C@H](C)C[C@H](C)/C=C/C=C/C=C/1C [Everolimus]
[1]
  Combination index (CI) value, median: 0.225
[2]
  Combination index (CI) value, median: 0.464

## CC(=O)c1c(C)c2cnc(Nc3ccc(N4CCNCC4)cn3)nc2n(C2CCCC2)c1=O [Palbociclib]
[1]
  Combination index (CI) value, median: 0.443
[2]
  Combination index (CI) value, median: 0.658

## COc1ccc(F)cc1C(=O)NCc1ccc(-c2nn([C@@H](C)C(F)(F)F)c(N)c2C(N)=O)cc1 [LOXO-305]
[4]
  Combination index (CI) value, median: 0.764
Human MCL cell line
  Combination index (CI) value, median: 0.646

## CN1CCC(c2ccccc2CC(C)(C)Nc2nc(N3CCOCC3)nc(-n3c(C(F)F)nc4ccccc43)n2)CC1 [Zandelisib]
[1]
  Combination index (CI) value, median: 0.698
[2]
  Combination index (CI) value, median: 0.494

## C=CC(=O)N1CCC([C@@H]2CCNc3c(C(N)=O)c(-c4ccc(Oc5ccccc5)cc4)nn32)CC1 [Zanubrutinib]
[4]
  Combination index (CI) value, median: 0.811
Human MCL cell line
  Combination index (CI) value, median: 0.75

## CC[C@H](Nc1ncnc2[nH]cnc12)c1nc2cccc(F)c2c(=O)n1-c1ccccc1 [Idelalisib]
[1]
  Combination index (CI) value, median: 0.457
[2]
  Combination index (CI) value, median: 0.528

## C=C(c1ccc(C(=O)O)cc1)c1cc2c(cc1C)C(C)(C)CCC2(C)C [Bexarotene]
[1]
  Combination index (CI) value, median: 0.276
